Laboratory results taken from ChEMBL document CHEMBL1141148, “Antidiabetic activity of passive nonsteroidal glucocorticoid receptor modulators” (J Med Chem, 2005).
Calls of active or inactive are those of the source. The calls are words filed in the database; no cut-off is given here.

What was measured:
Glucocorticoid receptor [1] = molecular target: T1, Glucocorticoid receptor (Homo sapiens, UniProt P04150); assay: Antagonistic activity against 5 nM Dexamethasone induced glucocorticoid receptor mediated alkaline phosphatase activity; type: functional
T1 sequence (P04150 whole entry): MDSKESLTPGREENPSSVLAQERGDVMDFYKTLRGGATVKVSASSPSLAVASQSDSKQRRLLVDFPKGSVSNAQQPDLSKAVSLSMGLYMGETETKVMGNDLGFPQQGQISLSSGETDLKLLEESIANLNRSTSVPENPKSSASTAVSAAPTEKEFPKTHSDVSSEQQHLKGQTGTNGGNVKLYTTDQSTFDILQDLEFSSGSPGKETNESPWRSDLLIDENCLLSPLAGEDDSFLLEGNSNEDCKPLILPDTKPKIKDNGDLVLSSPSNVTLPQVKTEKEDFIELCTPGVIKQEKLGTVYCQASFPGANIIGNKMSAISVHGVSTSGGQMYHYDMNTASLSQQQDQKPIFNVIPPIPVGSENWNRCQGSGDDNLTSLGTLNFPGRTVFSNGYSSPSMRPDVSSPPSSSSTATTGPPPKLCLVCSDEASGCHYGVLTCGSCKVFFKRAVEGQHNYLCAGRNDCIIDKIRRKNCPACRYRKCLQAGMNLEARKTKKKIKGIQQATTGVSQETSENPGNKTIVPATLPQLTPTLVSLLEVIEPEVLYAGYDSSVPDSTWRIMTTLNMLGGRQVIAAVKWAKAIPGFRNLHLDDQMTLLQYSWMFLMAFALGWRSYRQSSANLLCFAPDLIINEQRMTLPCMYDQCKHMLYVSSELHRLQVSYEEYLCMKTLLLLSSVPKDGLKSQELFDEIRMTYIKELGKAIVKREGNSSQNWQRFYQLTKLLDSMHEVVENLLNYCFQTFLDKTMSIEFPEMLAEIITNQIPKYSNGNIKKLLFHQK

Glucocorticoid receptor [2] = molecular target: T1, Glucocorticoid receptor
Glucocorticoid receptor [3] = molecular target: T2, Glucocorticoid receptor (Rattus norvegicus, UniProt P06536); assay: Inhibition of [3H]dexamethasone binding to rat glucocorticoid receptor
T2 sequence (P06536 whole entry): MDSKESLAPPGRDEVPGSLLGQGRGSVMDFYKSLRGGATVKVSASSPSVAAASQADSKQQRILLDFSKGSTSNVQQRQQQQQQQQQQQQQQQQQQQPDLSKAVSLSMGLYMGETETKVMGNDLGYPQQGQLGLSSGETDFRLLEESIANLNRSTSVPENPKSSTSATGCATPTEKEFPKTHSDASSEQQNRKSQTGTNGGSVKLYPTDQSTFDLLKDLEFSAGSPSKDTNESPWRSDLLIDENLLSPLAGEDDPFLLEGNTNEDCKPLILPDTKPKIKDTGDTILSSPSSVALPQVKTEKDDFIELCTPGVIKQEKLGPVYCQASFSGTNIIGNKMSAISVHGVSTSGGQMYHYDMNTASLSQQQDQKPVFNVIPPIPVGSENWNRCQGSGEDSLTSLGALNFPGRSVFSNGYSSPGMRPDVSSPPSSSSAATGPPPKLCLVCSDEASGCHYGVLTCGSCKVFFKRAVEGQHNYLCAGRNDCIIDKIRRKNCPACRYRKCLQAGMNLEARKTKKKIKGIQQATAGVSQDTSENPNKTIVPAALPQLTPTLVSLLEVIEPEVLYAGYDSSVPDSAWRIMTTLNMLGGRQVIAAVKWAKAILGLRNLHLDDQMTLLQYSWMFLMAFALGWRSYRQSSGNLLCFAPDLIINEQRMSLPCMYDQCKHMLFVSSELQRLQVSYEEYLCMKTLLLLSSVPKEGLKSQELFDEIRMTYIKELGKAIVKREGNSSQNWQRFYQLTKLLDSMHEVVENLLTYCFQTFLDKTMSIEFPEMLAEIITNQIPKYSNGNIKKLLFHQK

[4] = Half life period of the compound in human liver microsomes was determined; type: ADME, Microsome
Mus musculus [5] = species: Mus musculus; assay: Initial weight of the ob/ob mice before oral treatment at 10 mpk b.i.d. for 13 days; type: functional
[6] = Compound level in liver in SD rats after 1 hr of 5 mg/kg i.v. dose; type: ADME, organism-based; parameters: dose 5 mg/kg, route intravenous; conditions: Sprague-Dawley, rat, iv, read-out: Level
[7] = Aspartate aminotransferase (AST) levels in ob/ob mice after 13 days of oral dose at 100 mpk b.i.d.; type: ADME; conditions: mouse, in vivo, 100 mg/kg, 312 h
[8] = Compound level in plasma in SD rats after 1 hr of 5 mg/kg i.v. dose; type: ADME, organism-based; parameters: dose 5 mg/kg, route intravenous; conditions: Sprague-Dawley, rat, iv, read-out: Level
Mus musculus [9] = species: Mus musculus; assay: Initial weight of the ob/ob mice before oral treatment at 100 mpk b.i.d. for 13 days; type: functional
[10] = Compound level in plasma in ob/ob mice after 13 days of 100 mpk oral dose of compound; type: ADME; conditions: mouse, 100 mg/kg, read-out: Level
[11] = Clearance of the compound in rat after 5 mg/kg iv dose was determined; conditions: in vivo
[12] = Half life period of the compound in human hepatocytes was determined; type: ADME, cell-based, Liver, Hepatocyte
[13] = Compound level in liver in ob/ob mice after 13 days of 100 mpk oral dose of compound; type: ADME; conditions: mouse, 100 mg/kg, read-out: Level
Mus musculus [14] = species: Mus musculus; assay: Final weight of the ob/ob mice after 13 days of oral treatment at 10 mpk b.i.d.; type: functional
[15] = Compound level in plasma in SD rats after 7 hr of 5 mg/kg i.v. dose; type: ADME, organism-based; parameters: dose 5 mg/kg, route intravenous; conditions: Sprague-Dawley, rat, iv, read-out: Level
[16] = Compound level in liver in SD rats after 7 hr of 5 mg/kg i.v. dose; type: ADME, organism-based; parameters: dose 5 mg/kg, route intravenous; conditions: Sprague-Dawley, rat, iv, read-out: Level
[17] = Insulin levels in ob/ob mice after 14 days of oral dose at 100 mpk b.i.d.; type: ADME; conditions: mouse, in vivo, 100 mg/kg, 336 h
[18] = molecular target: T3, Glucocorticoid receptor (Homo sapiens) (UniProt P04150); conditions: Huh-7
T3 sequence (whole entry): T1 sequence (P04150 whole entry)

[19] = HbA1c levels in ob/ob mice after 30 days of oral dose at 30 mpk b.i.d.; type: ADME; conditions: mouse, in vivo, 30 mg/kg, 720 h
[20] = Glucose levels in ob/ob mice after 14 days of oral dose at 30 mpk b.i.d.; type: ADME; conditions: mouse, in vivo, 30 mg/kg, 336 h
Mus musculus [21] = species: Mus musculus; assay: Initial weight of the ob/ob mice before oral treatment at 30 mpk b.i.d. for 14 days; type: functional
[22] = Plasma protein binding of tritium labeled compound in rat plasma was determined; type: ADME, cell-free; conditions: read-out: Protein binding
Mus musculus [23] = species: Mus musculus; assay: Final weight of the ob/ob mice after 14 days of oral treatment at 100 mpk b.i.d.; type: functional
[24] = Free fatty acid (FFA) levels in ob/ob mice after 30 days of oral dose at 100 mpk b.i.d.; type: ADME; conditions: mouse, in vivo, 100 mg/kg, 720 h
[25] = Cholesterol levels in ob/ob mice after 14 days of oral dose at 100 mpk b.i.d.; type: ADME; conditions: mouse, in vivo, 100 mg/kg, 336 h
[26] = Area under the concentration-time curve in SD rats after 5 mg/kg oral dose; type: ADME, organism-based; parameters: dose 5 mg/kg, route oral; conditions: rat, in vivo
Mus musculus [27] = species: Mus musculus; assay: Initial weight of the ob/ob mice before oral treatment at 100 mpk b.i.d. for 14 days; type: functional

| SMILES | IC50 (Glucocorticoid receptor [1]) [nM] | IC50 (Glucocorticoid receptor [2]) [nM] | IC50 (Glucocorticoid receptor [3]) [nM] | half-life [4] [h] | concentration at 1 h [6] [ng/g] | concentration at 1 h [8] [µg/mL] | half-life [12] [h] | concentration at 312 h [13] [ng/g] | concentration at 7 h [15] [µg/mL] | concentration at 7 h [16] [ng/g] | Agonistic activity [18] | further results |
| --- | --- | --- | --- | --- | --- | --- | --- | --- | --- | --- | --- | --- |
| CC#C[C@]1(O)CC[C@H]2[C@@H]3CCC4=CC(=O)CC[C@]4(Cc4ccc(C)cc4)C3=CC[C@@]21C | 43 | 2.4 | 2.4 | – | – | – | – | – | – | – | – | – |
| Cc1c(NS(C)(=O)=O)cccc1N(Cc1ccccc1)Cc1ccc(Oc2ccc(OCC(=O)O)cc2)cc1 | – | – | 2.1 | 8.9 | 20000 | 0.03 | 31.1 | 207000 | 0.01 | 3800 | – | Weight (Mus musculus [5]): 45.4 g; Level [7]: 330 units/mL; Weight (Mus musculus [9]): 46 g; concentration at 312 h [10]: 1.6 µg/mL; Clearance [11]: 233 mL/min/kg; Weight (Mus musculus [14]): 49.3 g |
| Cc1c(NS(C)(=O)=O)cccc1N(Cc1ccc(Oc2ccc(F)c(OCC(=O)O)c2)cc1)Cc1ccc(F)cc1F | 440 | 4.8 | 0.2 | 2.3 | 74000 | 1.6 | 9.1 | 157000 | 0.65 | 40000 | inactive | Level [17]: 0.0328 µg/mL; Level [19]: 8.9%; Level [20]: 3140 µg/mL; Weight (Mus musculus [21]): 41.5 g; fraction unbound [22]: 0.001; Weight (Mus musculus [23]): 46.9 g; Level [24]: 1.27 mequiv/L; Level [25]: 1340 µg/mL; AUC [26]: 3850 ng·h/mL; Weight (Mus musculus [27]): 40 g |
| Cc1c(NS(C)(=O)=O)cccc1N(Cc1ccc(Oc2ccc(Cl)c(OCC(=O)O)c2)cc1)Cc1ccc(F)cc1F | 500 | 2.6 | 1.9 | – | – | – | – | – | – | – | inactive | – |
| Cc1c(NS(C)(=O)=O)cccc1N(Cc1ccccc1)Cc1ccc(Oc2cccc(OCCCC(=O)NCCCC(=O)O)c2)cc1 | – | – | 1 | – | – | – | – | – | – | – | inactive | – |
